Test results as given in paper PMC9144807, “Fluorine-18 Labeled Urea-Based Ligands Targeting Prostate-Specific Membrane Antigen (PSMA) with Increased Tumor and Decreased Renal Uptake” (Pharmaceuticals, 2022).
“And” between values parts separate entries of the source, which are not always exact repeats. Equal entries are not always repeated. Where two headings read alike, the source gives them in different places.

Key:
[1] = test system: PC3(+) xenografts; assay: In vivo biodistribution in PC3(+) xenograft mice; parameters: key to salivary gland T:M / Femur T:M / Blood T:M / Kidney T:M / Liver T:M: T:M = (%ID/g in tissue) / (%ID/g in muscle); conditions: for Radioactivity in the blood: 60 min (Figure 5A)
Protocol: (§1) PC3(−) (wildtype human prostate cancer cell line, PSMA negative) and PC3(+) (transfected with human PSMA) were provided by Dr. Hisataka Kobayashi. Cell lines were grown at 37 °C in 5% CO2 in RPMI-1640 supplemented with 10% FBS, 2 mM L-glutamine and Pen/Strep/Amphotericin B. PC3(+) and PC3(−) cell suspensions [2 × 10^6 cells; PBS:Matrigel (70:30)] from in vitro cell culture were subcutaneously implanted (right shoulder) into athymic mice (Athymic NCr- nu/nu, Charles River Laboratory, 4 weeks old) for use as positive and negative controls, respectively, for in vitro or in vivo studies. When tumors reached the appropriate size (>100 mg) the xenograft mice were used for in vivo biodistributions and imaging studies or the tumors were excised and further processed to obtain membrane preparations for in vitro assays as described previously.
(§2) Tumor-bearing mice (tumor weights: 0.1–0.8 g) were injected while awake via the tail vein with each of the tracers [0.74–3.7 MBq (20 to 100 µCi), 10 to 80 pmol] and euthanized (via CO2 inhalation) at selected times. […] Blood samples and tissues were excised from each animal, weighed, and radioactivity content was determined (Perkin Elmer 2480 Wizard3). Radioactivity content in the blood and each tissue was expressed as % injected dose per gram of tissue [%ID/g; (Formula (1))] and then normalized for body weight to a 20 g mouse (Formula (2)) from which Tissue:Muscle ratios [T:M; (Formula (3))] were determined as follows:(1) %ID/g =[counts per minute cpmtissue / tissue weight g]×100/cpmtotal injected dose
(§3) %ID/g (normalized to a 20 g mouse) = (%ID/g) × (body weight/20 g)(2)
(§4) (3) T:M=%ID/gtissue/%ID/gmuscle

[2] = biological target: T1, PSMA (Homo sapiens, UniProt Q04609); assay: In vitro saturation binding assay with PC3(+) tumor membrane preparations; conditions: saturation assays, mean (SE), n = 3–5
T1 construct: expressed in transfected cells; host or cells: PC3(+) (PC3 human prostate cancer cells transfected with human PSMA), grown as xenograft tumors in athymic mice; tumor membrane preparations
Protocol: as §1
In vitro saturation studies were performed to determine binding affinities (Kd) and PSMA expression levels (Bmax) using tumor membrane preparations from PC3(−) and PC3(+) PSMA xenografts (human prostate cancer cell line transfected with human PSMA; PC3(+)). […] Filter papers were collected, and the radioactive content was quantified by gamma counting (PerkinElmer 2480 Wizard3). […] Aliquots of each membrane preparation were taken for the determination of the protein concentration (Bradford method).

[3] = Fraction of intact tracer (parent) in blood and kidney by TLC; type: in vivo, mice; conditions: for %Parent compound in blood (TLC analysis): 60 min; for tissue uptake at 0.25 h: 15 min post-injection; for tissue uptake at 0.5 h: 30 min post-injection; for tissue uptake at 2 h: 120 min post-injection
Excerpt: In some cases, additional blood samples and/or tissue samples after gamma counting were taken for determining the fraction of intact radiolabeled tracer (parent) using thin-layer chromatography (TLC). For these TLC determinations: tissues were placed in equal volumes of acetonitrile and homogenized, or serum was obtained from the blood samples and mixed with an equal volume of acetonitrile. Following centrifugation of the samples, supernatants were collected and the radioactive content of the supernatants and pellets were determined. The supernatants were then applied to thin-layer chromatography (TLC) plates. The TLC plates were developed [solvent system: ethyl acetate (80%), methanol (10%) and acetic acid (10%)], and exposed on a phosphorimaging plate which was scanned the next day.

[4] = test system: PC3(−) xenografts; assay: In vivo biodistribution in PC3(−) xenograft mice (negative control); conditions: 60 min; mean ± SE, n = 8–10
Protocol: as §1, §2, §3, §4

[5] = test system: PC3(+) tumor xenograft mice; assay: Small animal PET imaging with ROI analysis, PC3(+) tumor xenograft mice; type: in vivo; conditions: 60 min post-injection
Protocol: Tumor-bearing mice were anesthetized with isoflurane/O2 (1.5–3% v/v) and imaged at various times after intravenous injection of each tracer [2.6 to 3.7 MBq (70 to 100 µCi)]. Whole body static PET images were obtained at 2 bed positions (FOV = 2.0 cm, total imaging time: 10 min) using a BioPET scanner (Bioscan Inc., Washington, DC, USA). The images were reconstructed by a 3-dimensional ordered-subsets expectation maximum (3D-OSEM).

[6] = test system: PC3(+) xenografts; assay: Blocking biodistribution study in PC3(+) xenografts, coinjection of non-radioactive DCFPyL; type: in vivo, mice; conditions: 60 min, coinjection of DCFPyL 1000×
Protocol: as §2, §3, §4

[7] = biological target: T1, PSMA; assay: In vitro competition binding assay with [18F]DCFPyL as radioligand, PC3(+) tumor membrane preparations
[8] = 15 min post-injection, mean ± SE
[9] = 30 min post-injection, mean ± SE
[10] = 60 min post-injection, mean ± SE
[11] = 120 min post-injection, mean ± SE
[12] = mouse, blood, intravenous, mean ± SE, read-out: Blood uptake, parent (corrected for metabolites)
[13] = mouse, kidney, intravenous, mean ± SE, read-out: Kidney uptake, parent (corrected for metabolites)

T1 sequence (Q04609 whole entry): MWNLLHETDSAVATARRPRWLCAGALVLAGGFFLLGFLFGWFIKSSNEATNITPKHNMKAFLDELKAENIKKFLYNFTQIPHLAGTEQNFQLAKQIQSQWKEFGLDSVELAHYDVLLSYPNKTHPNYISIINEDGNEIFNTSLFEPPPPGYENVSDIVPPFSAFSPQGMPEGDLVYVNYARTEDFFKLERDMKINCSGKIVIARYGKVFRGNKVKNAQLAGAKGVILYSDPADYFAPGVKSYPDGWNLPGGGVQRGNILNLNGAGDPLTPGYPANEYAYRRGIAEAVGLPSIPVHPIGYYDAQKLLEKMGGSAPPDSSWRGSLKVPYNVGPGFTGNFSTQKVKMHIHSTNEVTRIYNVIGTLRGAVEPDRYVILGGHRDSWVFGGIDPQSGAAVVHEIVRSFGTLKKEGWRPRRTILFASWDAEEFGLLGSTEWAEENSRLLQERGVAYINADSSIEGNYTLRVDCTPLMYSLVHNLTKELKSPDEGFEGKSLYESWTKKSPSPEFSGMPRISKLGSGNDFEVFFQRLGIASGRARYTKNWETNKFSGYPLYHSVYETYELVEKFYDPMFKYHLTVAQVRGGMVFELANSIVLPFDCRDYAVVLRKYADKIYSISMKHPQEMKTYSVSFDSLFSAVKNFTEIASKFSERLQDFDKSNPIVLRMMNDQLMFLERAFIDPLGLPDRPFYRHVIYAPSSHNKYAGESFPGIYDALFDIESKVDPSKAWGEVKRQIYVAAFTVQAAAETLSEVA

O=C(O)CC[C@H](NC(=O)N[C@@H](CCCCNC(=O)CCCCCO/N=C\c1ccc([18F])cc1)C(=O)O)C(=O)O [[^18F]2a]
Blood uptake, total radioactivity [1, 8]: 4.83 ± 0.57 %ID/g | Kidney uptake, total radioactivity [1, 8]: 62.2 ± 3.4 %ID/g | Blood uptake, total radioactivity [1, 9]: 2.47 ± 0.18 %ID/g | Kidney uptake, total radioactivity [1, 9]: 78.4 ± 9.1 %ID/g | decrease of PC3(+) tumor T:M compared to [18F]DCFPyL ([1]; 60 min): 40% | increase of blood radioactivity vs. [18F]DCFPyL ([1]; 60 min): 1.6 fold | increase of liver T:M compared to [18F]DCFPyL ([1]; 60 min): 6.8 fold | decrease of kidney T:M compared to [18F]DCFPyL ([1]; 60 min, p < 0.0001): 55% | Blood T:M ([1]; 60 min, mean ± SE, n = 8–10): 2.85 ± 0.15 | Femur T:M ([1]; 60 min, mean ± SE, n = 8–10): 0.73 ± 0.04 | Kidney T:M ([1]; 60 min, mean ± SE, n = 8–10): 314.8 ± 8.3 | Liver T:M ([1]; 60 min, mean ± SE, n = 8–10): 66.9 ± 4.2 | PC3(+) Tumor T:M ([1]; 60 min, mean ± SE, n = 8–10): 74 and 73.9 ± 5.8 | Blood uptake, total radioactivity [1, 10]: 0.77 ± 0.10 %ID/g | Kidney uptake, total radioactivity [1, 10]: 75.8 ± 6.3 %ID/g | Blood uptake, total radioactivity [1, 11]: 0.37 ± 0.03 %ID/g | Kidney uptake, total radioactivity [1, 11]: 87.8 ± 5.1 %ID/g | Femur uptake ([1]; all times 15 to 120 min): < 1 %ID/g | Femur T:M ([1]; all times except 120 min): < 1.8 | decrease of tumor T:M compared to [18F]DCFPyL tumor T:M ([1]; at 30 and 60 min): ~ 2 fold | increase in tumor T:M from 15 to 120 min ([1]; mouse, in vivo): ~ 14 fold | increase of tumor retention (%ID/g) from 15 to 120 min ([1]; mouse, in vivo): 1.4 fold | Kd [2]: 0.362 nM | %Parent compound in blood (TLC analysis) ([3]; mean ± SD, n = 2–5): 84.8 ± 0.6% | increase of parent kidney uptake compared to [18F]DCFPyL ([3]; 120 min): 4 fold | tissue uptake at 0.25 h [3, 12]: 4.1 ± 0.49 %ID/g | tissue uptake at 0.5 h [3, 12]: 2.08 ± 0.15 %ID/g | tissue uptake at 2 h [3, 12]: 0.31 ± 0.03 %ID/g | tissue uptake at 0.25 h [3, 13]: 11.8 ± 0.64 %ID/g | tissue uptake at 0.5 h [3, 13]: 22.7 ± 1.73 %ID/g | tissue uptake at 1 h ([3]; mouse, kidney, intravenous, 60 min post-injection, mean ± SE, read-out: Kidney uptake, parent (corrected for metabolites)): 15.6 ± 1.19 %ID/g | tissue uptake at 2 h [3, 13]: 13 ± 0.98 %ID/g | % of parent in blood ([3]; nude, mouse, in vivo): 85-83 | % of parent in kidney ([3]; nude, mouse, in vivo): 29-15 | %Parent compound in blood (TLC analysis) ([3]; nude, mouse, in vivo): 85% | PC3(−) Tumor T:M [4]: 1.42 ± 0.13 | PC3(+) tumor uptake from ROI analysis of PET images [5]: 14 %ID/g | increase of liver uptake compared to [18F]DCFPyL (PET ROI) [5]: ~ 10 fold | kidney uptake from ROI analysis of PET images [5]: 98 %ID/g | liver uptake from ROI analysis of PET images [5]: 29 %ID/g | reduction of kidney uptake compared to [18F]DCFPyL (PET ROI) [5]: ~ 50% | decrease of PC3(+) tumor T:M in blocked group compared to non-blocked group [6]: 48%

O=C(O)CC[C@H](NC(=O)N[C@@H](CCCCNC(=O)CO/N=C\c1ccc(F)nc1)C(=O)O)C(=O)O [1b, (((S)-5-(2-(aminooxy)acetamido)-1-carboxypentyl)carbamoyl)-L-glutamic acid 6-fluoronicotinaldehyde oxime]
Ki [7]: 0.312 nM

O=C(O)CC[C@H](NC(=O)N[C@@H](CCCCNC(=O)CO/N=C\c1ccc(F)cc1)C(=O)O)C(=O)O [1a, (((S)-5-(2-(aminooxy)acetamido)-1-carboxypentyl)carbamoyl)-L-glutamic acid 4-fluorobenzaldehyde oxime, reference compound]
Ki [7]: 0.101 nM

O=C(O)CC[C@H](NC(=O)N[C@@H](CCCCNC(=O)CO/N=C\c1ccc([18F])nc1)C(=O)O)C(=O)O [[^18F]1b]
decrease of blood radioactivity compared to [18F]DCFPyL ([1]; 60 min): 40% | increase of PC3(+) tumor T:M compared to [18F]DCFPyL ([1]; 60 min): 1.6 fold | increase of kidney T:M compared to [18F]DCFPyL ([1]; 60 min): 1.4 fold | Radioactivity in the blood [1]: 0.309 %ID/g | Blood T:M ([1]; 60 min, mean ± SE, n = 8–10): 2.26 ± 0.22 | Femur T:M ([1]; 60 min, mean ± SE, n = 8–10): 1.80 ± 0.17 | Kidney T:M ([1]; 60 min, mean ± SE, n = 8–10): 1013 ± 34 | Liver T:M ([1]; 60 min, mean ± SE, n = 8–10): 24.9 ± 2.0 | PC3(+) Tumor T:M ([1]; 60 min, mean ± SE, n = 8–10): 204 and 203.7 ± 34.5 | Kd [2]: 0.458 nM | %Parent compound in blood (TLC analysis) ([3]; mean ± SD, n = 2–5): 74.4 ± 7.6% | PC3(−) Tumor T:M [4]: 1.43 ± 0.29

O=C(O)CC[C@H](NC(=O)N[C@@H](CCCCNC(=O)CCCCCO/N=C\c1ccc(F)cc1)C(=O)O)C(=O)O [2a, (((. S)-5-(6-(Aminooxy)hexanamido)-1-carboxypentyl)carbamoyl)-L-glutamic acid 4-fluorobenzaldehyde oxime]
Ki [7]: 0.621 nM

O=C(O)CC[C@H](NC(=O)N[C@@H](CCCCNC(=O)CCCCCO/N=C\c1ccc(F)nc1)C(=O)O)C(=O)O [2b, (((. S)-5-(6-(Aminooxy)hexanamido)-1-carboxypentyl)carbamoyl)-L-glutamic acid 6-fluoronicotinaldehyde oxime]
Ki [7]: 0.901 nM

O=C(O)CC[C@H](NC(=O)N[C@@H](CCCCNC(=O)CCCCCO/N=C\c1ccc([18F])nc1)C(=O)O)C(=O)O [[^18F]2b]
decrease of PC3(+) tumor T:M compared to [18F]DCFPyL ([1]; 60 min): 27% | decrease of blood radioactivity compared to [18F]DCFPyL ([1]; 60 min): 27% | Radioactivity in the blood [1]: 0.377 %ID/g | Blood T:M ([1]; 60 min, mean ± SE, n = 8–10): 2.04 ± 0.11 | Femur T:M ([1]; 60 min, mean ± SE, n = 8–10): 2.00 ± 0.18 | Kidney T:M ([1]; 60 min, mean ± SE, n = 8–10): 814.2 ± 71.9 | Liver T:M ([1]; 60 min, mean ± SE, n = 8–10): 44.6 ± 3.8 | PC3(+) Tumor T:M ([1]; 60 min, mean ± SE, n = 8–10): 90 and 89.9 ± 7.6 | Kd [2]: 0.489 nM | %Parent compound in blood (TLC analysis) ([3]; mean ± SD, n = 2–5): 78.8 ± 2.6% | PC3(−) Tumor T:M [4]: 1.65 ± 0.20 | decrease of PC3(+) tumor T:M in blocked group compared to non-blocked group [6]: 85%
